Measured values reported in patent US7541020B2, “Aminoalkyl glucosaminide phosphate compounds and their use as adjuvants and immunoeffectors” (priority 1997, dated 2009).
Where two headings read alike, the source gives them in different places.

What was measured:
E.G7 (OVA) cells = conditions: s.c. 25 μg OVA in AGP preparation, spleen cells 21 days later
influenza A/HK/68 = type: in vivo, ICR mice
TNF-α = test: Cytokine induction in human whole blood ex vivo culture: TNF-α (ELISA); type: cell-based; conditions: 4 hr
Description: (§1) AGP compounds were solubilized in 10% EtOH-water and diluted to various concentrations. Fifty μl of each dilution were added to 450 μl of whole human blood. Controls were treated with culture media (RPMI). The reaction mixture was incubated at 37° C. for 4 hr with constant mixing on a rotator. Sterile PBS (1.5 ml) was added to the reaction mixture, the cells were centrifuged and the supernatents removed for cytokine testing. The concentration of TNF-α and IL-1β in each supernatent was determined using immunoassay ELISA kits from R&D Systems.

IL-1β = test: Cytokine induction in human whole blood ex vivo culture: IL-1β (ELISA); type: cell-based; conditions: 4 hr
Description: as §1

tetanus toxoid = conditions: mouse, in vivo, sc
[1] = 25 μg AGP + 1 HAU FI-Flu in 0.2% TEoA, once, bled day 14, Table 11

With “3-Hydroxy-(S)-2-[(R)-3-heptanoyloxytetradecanoylamino]propyl 2-Deoxy-4-O-phosphono-2-[(R)-3-heptanoyloxytetradecanoylamino]-3-O-[(R)-3-heptanoyloxytetradecanoyl]-β-D-glucopyranoside Triethylammonium Salt [B8]” the “% Cytotoxicity” value (E.G7 (OVA) cells; E:T 12.5:1) was 15%, the “% Cytotoxicity” value (E.G7 (OVA) cells; E:T 25:1) was 20% and the “% Cytotoxicity” value (E.G7 (OVA) cells; E:T 50:1) was 36%. The “Percent Survival” value (influenza A/HK/68; mouse, in vivo) was 80%, the “Titer−1 IgG1” value (influenza A/HK/68; mouse, in vivo) was 3200 and the “Titer−1 IgG2a” value (influenza A/HK/68; mouse, in vivo) was 400. For the same substance, the “Titer−1 IgG2b” value (influenza A/HK/68; mouse, in vivo) was 1600 and the “Titer−1 Total IgG” value (influenza A/HK/68; mouse, in vivo) was 6400.
“N-[(R)-3-Decanoyloxytetradecanoyl]-O-[2-deoxy-4-O-phosphono-2-[(R)-3-decanoyloxytetradecanoylamino]-3-O-[(R)-3-hexanoyloxytetradecanoyl]-α-D-glucopyranosyl]-L-serine Triethylammonium Salt [B35]” was tested, and the “% Cytotoxicity” value (E.G7 (OVA) cells; E:T 12.5:1) was 2%, the “% Cytotoxicity” value (E.G7 (OVA) cells; E:T 25:1) was 5% and the “% Cytotoxicity” value (E.G7 (OVA) cells; E:T 50:1) was 9%.
“N-[(R)-3-Decanoyloxytetradecanoyl]-O-[2-deoxy-4-O-phosphono-2-[(R)-3-hexanoyloxytetradecanoylamino]-3-O-[(R)-3-decanoyloxytetradecanoyl]-α-D-glucopyranosyl]-L-serine Triethylammonium Salt [B36]” was tested, and the “% Cytotoxicity” value (E.G7 (OVA) cells; E:T 12.5:1) was 4%, the “% Cytotoxicity” value (E.G7 (OVA) cells; E:T 25:1) was 7% and the “% Cytotoxicity” value (E.G7 (OVA) cells; E:T 50:1) was 13%.
For “N-[(R)-3-Decanoyloxytetradecanoyl]-O-[2-deoxy-4-O-phosphono-2-[(R)-3-hexanoyloxytetradecanoylamino]-3-O-[(R)-3-hexanoyloxytetradecanoyl]-α-D-glucopyranosyl]-L-serine Triethylammonium Salt [B40]”, the “% Cytotoxicity” value (E.G7 (OVA) cells; E:T 12.5:1) was 8%, the “% Cytotoxicity” value (E.G7 (OVA) cells; E:T 25:1) was 12% and the “% Cytotoxicity” value (E.G7 (OVA) cells; E:T 50:1) was 20%.
With “N-[(R)-3-Heptanoyloxytetradecanoyl]-O-[2-deoxy-4-O-phosphono-2-[(R)-3-heptanoyloxytetradecanoylamino]-3-O-[(R)-3-heptanoyloxytetradecanoyl]-β-D-glucopyranosyl]-L-serine Triethylammonium Salt [B18]” the “% Cytotoxicity” value (E.G7 (OVA) cells; E:T 12.5:1) was 15%, the “% Cytotoxicity” value (E.G7 (OVA) cells; E:T 25:1) was 20% and the “% Cytotoxicity” value (E.G7 (OVA) cells; E:T 50:1) was 36%. For the same substance, the “Titer^−1 IgG1” value (influenza A/HK/68; [1]) was 800, the “Titer^−1 IgG2a” value (influenza A/HK/68; [1]) was 800 and the “Titer^−1 IgG2b” value (influenza A/HK/68; [1]) was 400. For the same substance, the “Titer^−1 Total IgG” value (influenza A/HK/68; [1]) was 800 and the “Percent Survival” value (influenza A/HK/68; […], mortality 21 days, Table 11) was 20%.
For “N-[(R)-3-Hexanoyloxytetradecanoyl]-O-[2-deoxy-4-O-phosphono-2-[(R)-3-decanoyloxytetradecanoylamino]-3-O-[(R)-3-decanoyloxytetradecanoyl]-α-D-glucopyranosyl]-L-serine Triethylammonium Salt [B37]”, the “% Cytotoxicity” value (E.G7 (OVA) cells; E:T 12.5:1) was 6%, the “% Cytotoxicity” value (E.G7 (OVA) cells; E:T 25:1) was 8% and the “% Cytotoxicity” value (E.G7 (OVA) cells; E:T 50:1) was 12%.
With “N-[(R)-3-Hexanoyloxytetradecanoyl]-O-[2-deoxy-4-O-phosphono-2-[(R)-3-decanoyloxytetradecanoylamino]-3-O-[(R)-3-hexanoyloxytetradecanoyl]-α-D-glucopyranosyl]-L-serine Triethylammonium Salt [B39]” the “% Cytotoxicity” value (E.G7 (OVA) cells; E:T 12.5:1) was 13%, the “% Cytotoxicity” value (E.G7 (OVA) cells; E:T 25:1) was 21% and the “% Cytotoxicity” value (E.G7 (OVA) cells; E:T 50:1) was 33%.
For “N-[(R)-3-Hexanoyloxytetradecanoyl]-O-[2-deoxy-4-O-phosphono-2-[(R)-3-hexanoyloxytetradecanoylamino]-3-O-[(R)-3-decanoyloxytetradecanoyl]-α-D-glucopyranosyl]-L-serine Triethylammonium Salt [B38]”, the “% Cytotoxicity” value (E.G7 (OVA) cells; E:T 12.5:1) was 16%, the “% Cytotoxicity” value (E.G7 (OVA) cells; E:T 25:1) was 25% and the “% Cytotoxicity” value (E.G7 (OVA) cells; E:T 50:1) was 38%.
In the case of “N-[(R)-3-Hydroxytetradecanoyl]-O-[2-deoxy-4-O-phosphono-2-[(R)-3-dodecanoyloxytetradecanoylamino]-3-O-[(R)-3-tetradecanoyloxytetradecanoyl]-α-D-glucopyranosyl]-L-serine Triethylammonium Salt [B43]”, the “% Cytotoxicity” value (E.G7 (OVA) cells; E:T 12.5:1) is reported as 6%, the “% Cytotoxicity” value (E.G7 (OVA) cells; E:T 25:1) is reported as 12% and the “% Cytotoxicity” value (E.G7 (OVA) cells; E:T 50:1) is reported as 19%.
Work on “N-[(R)-3-Nonanoyloxytetradecanoyl]-O-[2-deoxy-4-O-phosphono-2-[(R)-3-nonanoyloxytetradecanoylamino]-3-O-[(R)-3-nonanoyloxytetradecanoyl]-β-D-glucopyranosyl]-L-serine Triethylammonium Salt [B16]” yielded a TNF-α (TNF-α; Dosage 500 ng/ml, Table 17) of 55 pg/mL, a TNF-α (TNF-α; Dosage 1000 ng/ml, Table 15) of 155 pg/mL and a TNF-α (TNF-α; Dosage 1000 ng/ml, Table 17) of 72 pg/mL. It also gave a TNF-α (TNF-α; Dosage 5000 ng/ml, Table 15) of 277 pg/mL, a TNF-α (TNF-α; Dosage 5000 ng/ml, Table 17) of 114 pg/mL and a TNF-α (TNF-α; Dosage 10,000 ng/ml, Table 15) of 291 pg/mL. The TNF-α (TNF-α; Dosage 10,000 ng/ml, Table 17) was 121 pg/mL, the IL-1β (IL-1β; Dosage 500 ng/ml, Table 17) was 17.1 pg/mL and the IL-1β (IL-1β; Dosage 1000 ng/ml, Table 15) was 39 pg/mL. The IL-1β (IL-1β; Dosage 1000 ng/ml, Table 17) was 19.5 pg/mL, the IL-1β (IL-1β; Dosage 5000 ng/ml, Table 15) was 53 pg/mL and the IL-1β (IL-1β; Dosage 5000 ng/ml, Table 17) was 34.0 pg/mL. The IL-1β (IL-1β; Dosage 10,000 ng/ml, Table 15) was 55 pg/mL, the IL-1β (IL-1β; Dosage 10,000 ng/ml, Table 17) was 41.0 pg/mL and the “% Cytotoxicity” value (E.G7 (OVA) cells; E:T 12.5:1) was 20%. The “% Cytotoxicity” value (E.G7 (OVA) cells; E:T 25:1) was 29%, the “% Cytotoxicity” value (E.G7 (OVA) cells; E:T 50:1) was 42% and the “Percent Survival” value (influenza A/HK/68; mouse, in vivo) was 40%. For the same substance, the “Titer^−1 IgG1” value (influenza A/HK/68; mouse, in vivo) was 1600, the “Titer^−1 IgG2a” value (influenza A/HK/68; mouse, in vivo) was 100 and the “Titer^−1 IgG2b” value (influenza A/HK/68; mouse, in vivo) was 800. The “Titer^−1 Total IgG” value (influenza A/HK/68; mouse, in vivo) was 800, the “Anti-tetanus toxoid IgG2a T/C” value (tetanus toxoid) was 66.8 and the “Anti-tetanus toxoid IgG2a titer” value (tetanus toxoid) was 1135. For the same substance, the “Anti-tetanus toxoid IgG2b T/C” value (tetanus toxoid) was 104, the “Anti-tetanus toxoid IgG2b titer” value (tetanus toxoid) was 6880 and the “Anti-tetanus toxoid IgM T/C” value (tetanus toxoid) was 1.6. The “Anti-tetanus toxoid IgM titer” value (tetanus toxoid) was 2560.
“N-[(R)-3-Undecanoyloxytetradecanoyl]-O-[2-deoxy-4-O-phosphono-2-[(R)-3-undecanoyloxytetradecanoylamino]-3-O-[(R)-3-undecanoyloxytetradecanoyl]-β-D-glucopyranosyl]-L-serine Triethylammonium Salt [B13]” was tested, and the TNF-α (TNF-α; Dosage 100 ng/ml, Table 17) was 302 pg/mL, the TNF-α (TNF-α; Dosage 500 ng/ml, Table 17) was 411 pg/mL and the TNF-α (TNF-α; Dosage 1000 ng/ml, Table 15) was 740 pg/mL. The TNF-α (TNF-α; Dosage 1000 ng/ml, Table 17) was 478 pg/mL, the TNF-α (TNF-α; Dosage 5000 ng/ml, Table 15) was 716 pg/mL and the TNF-α (TNF-α; Dosage 5000 ng/ml, Table 17) was 592 pg/mL. It also gave a TNF-α (TNF-α; Dosage 10,000 ng/ml, Table 15) of 775 pg/mL, a TNF-α (TNF-α; Dosage 10,000 ng/ml, Table 17) of 583 pg/mL and an IL-1β (IL-1β; Dosage 100 ng/ml, Table 17) of 261 pg/mL. It also gave an IL-1β (IL-1β; Dosage 500 ng/ml, Table 17) of 352 pg/mL, an IL-1β (IL-1β; Dosage 1000 ng/ml, Table 15) of 177 pg/mL and an IL-1β (IL-1β; Dosage 1000 ng/ml, Table 17) of 327 pg/mL. For the same substance, the IL-1β (IL-1β; Dosage 5000 ng/ml, Table 15) was 187 pg/mL, the IL-1β (IL-1β; Dosage 5000 ng/ml, Table 17) was 390 pg/mL and the IL-1β (IL-1β; Dosage 10,000 ng/ml, Table 15) was “THTC*”. For the same substance, the IL-1β (IL-1β; Dosage 10,000 ng/ml, Table 17) was 282 pg/mL, the “% Cytotoxicity” value (E.G7 (OVA) cells; E:T 12.5:1) was 10% and the “% Cytotoxicity” value (E.G7 (OVA) cells; E:T 25:1) was 15%. For the same substance, the “% Cytotoxicity” value (E.G7 (OVA) cells; E:T 50:1) was 28%, the “Percent Survival” value (influenza A/HK/68; mouse, in vivo) was 50% and the “Titer^−1 IgG1” value (influenza A/HK/68; mouse, in vivo) was 800. The “Titer^−1 IgG2a” value (influenza A/HK/68; mouse, in vivo) was 400, the “Titer^−1 IgG2b” value (influenza A/HK/68; mouse, in vivo) was 800 and the “Titer^−1 Total IgG” value (influenza A/HK/68; mouse, in vivo) was 1600. The “Anti-tetanus toxoid IgG2a T/C” value (tetanus toxoid) was 220, the “Anti-tetanus toxoid IgG2a titer” value (tetanus toxoid) was 3740 and the “Anti-tetanus toxoid IgG2b T/C” value (tetanus toxoid) was greater than 208. The “Anti-tetanus toxoid IgG2b titer” value (tetanus toxoid) was >13,760, the “Anti-tetanus toxoid IgM T/C” value (tetanus toxoid) was 3.9 and the “Anti-tetanus toxoid IgM titer” value (tetanus toxoid) was 6080.
